Assay results published in US8003660B2, “Modulators of muscarinic receptors” (Vertex Pharmaceuticals Incorporated, priority 2006, dated 2011).

What was measured:
Assay type in all cases: cell-based
M1 muscarinic receptor = target: T1, M1 muscarinic receptor (Homo sapiens, UniProt P11229); test: Functional mobilization of intracellular calcium (FLIPR) in CHO cells expressing M1; conditions: for M1 Activity: CHO cells expressing M1, FLIPR calcium assay; for Emax: CHO, 100% efficacy = maximum response obtained with the Carbachol control
T1 construct: expressed in transfected cells; host or cells: CHO (M1-CHO)
T1 sequence (P11229 1-460): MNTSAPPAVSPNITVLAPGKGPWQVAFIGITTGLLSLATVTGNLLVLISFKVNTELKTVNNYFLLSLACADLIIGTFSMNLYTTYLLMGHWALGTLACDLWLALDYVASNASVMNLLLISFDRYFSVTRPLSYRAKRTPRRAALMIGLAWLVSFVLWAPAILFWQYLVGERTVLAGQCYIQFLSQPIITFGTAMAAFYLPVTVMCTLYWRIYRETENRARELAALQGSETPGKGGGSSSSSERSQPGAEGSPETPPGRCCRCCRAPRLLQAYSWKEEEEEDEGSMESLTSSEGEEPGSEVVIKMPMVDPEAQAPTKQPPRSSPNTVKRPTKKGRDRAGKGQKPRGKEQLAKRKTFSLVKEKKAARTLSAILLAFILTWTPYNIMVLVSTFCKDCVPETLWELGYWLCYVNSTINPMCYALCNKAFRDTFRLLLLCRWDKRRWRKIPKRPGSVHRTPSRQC
In short: (§1)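 Calcium flux is read on FLIPR over 60 sec at 488/540 nm in muscarinic-receptor CHO lines. Antagonist mode adds carbachol at EC80 after 15 min compound preincubation or with simultaneous co-application. Agonist mode adds compound alone. Cells carry Fluo-3 or Calcium 3 dye in probenecid-containing pH 7.4 buffer, 0.5% DMSO final.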

M2 muscarinic receptor = target: T2, M2 muscarinic receptor (Homo sapiens, UniProt P08172); test: Functional mobilization of intracellular calcium (FLIPR) in CHO cells expressing M2; conditions: for M2 Activity: CHO cells expressing M2, FLIPR calcium assay; for Emax: CHO, 100% efficacy = maximum response obtained with the Carbachol control
T2 construct: expressed in transfected cells; host or cells: CHO (M2-CHO)
T2 sequence (P08172 1-466): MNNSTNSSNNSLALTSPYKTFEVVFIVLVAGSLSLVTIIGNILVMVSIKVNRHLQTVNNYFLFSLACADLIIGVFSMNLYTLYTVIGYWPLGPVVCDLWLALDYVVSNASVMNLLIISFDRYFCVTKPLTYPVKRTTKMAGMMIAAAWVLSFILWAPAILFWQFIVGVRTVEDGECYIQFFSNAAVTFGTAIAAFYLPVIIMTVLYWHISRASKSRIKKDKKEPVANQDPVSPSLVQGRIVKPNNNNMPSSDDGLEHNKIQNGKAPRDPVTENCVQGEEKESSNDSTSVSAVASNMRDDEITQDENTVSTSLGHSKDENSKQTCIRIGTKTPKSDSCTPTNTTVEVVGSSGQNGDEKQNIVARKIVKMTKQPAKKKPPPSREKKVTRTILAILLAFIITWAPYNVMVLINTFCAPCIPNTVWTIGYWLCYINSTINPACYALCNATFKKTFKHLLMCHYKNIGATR
In short: as §1

M3 muscarinic receptor = target: T3, M3 muscarinic receptor (Homo sapiens, UniProt P20309); test: Functional mobilization of intracellular calcium (FLIPR) in CHO cells expressing M3; conditions: for M3 Activity: CHO cells expressing M3, FLIPR calcium assay; for Emax: CHO, 100% efficacy = maximum response obtained with the Carbachol control
T3 construct: expressed in transfected cells; host or cells: CHO (M3-CHO)
In short: as §1

M4 muscarinic receptor = target: T4, M4 muscarinic receptor (Homo sapiens, UniProt P08173); test: Functional mobilization of intracellular calcium (FLIPR) in CHO cells expressing M4; conditions: for M4 Activity: CHO cells expressing M4, FLIPR calcium assay; for Emax: CHO, 100% efficacy = maximum response obtained with the Carbachol control
T4 construct: expressed in transfected cells; host or cells: CHO (M4-CHO)
T4 sequence (P08173 1-479): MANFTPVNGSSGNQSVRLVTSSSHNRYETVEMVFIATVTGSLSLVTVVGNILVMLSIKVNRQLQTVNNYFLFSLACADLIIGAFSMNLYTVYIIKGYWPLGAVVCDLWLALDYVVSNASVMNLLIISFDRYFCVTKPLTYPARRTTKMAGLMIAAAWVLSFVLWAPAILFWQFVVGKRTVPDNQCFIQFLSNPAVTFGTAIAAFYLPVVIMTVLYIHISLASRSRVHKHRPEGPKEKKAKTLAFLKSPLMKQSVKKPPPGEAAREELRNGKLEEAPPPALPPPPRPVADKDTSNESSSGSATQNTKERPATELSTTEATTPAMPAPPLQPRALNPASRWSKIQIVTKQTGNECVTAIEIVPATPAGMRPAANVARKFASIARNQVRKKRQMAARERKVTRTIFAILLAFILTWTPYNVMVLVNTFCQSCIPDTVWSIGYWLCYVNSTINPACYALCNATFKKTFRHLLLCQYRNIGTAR
In short: as §1

T3 sequence (P20309 whole entry): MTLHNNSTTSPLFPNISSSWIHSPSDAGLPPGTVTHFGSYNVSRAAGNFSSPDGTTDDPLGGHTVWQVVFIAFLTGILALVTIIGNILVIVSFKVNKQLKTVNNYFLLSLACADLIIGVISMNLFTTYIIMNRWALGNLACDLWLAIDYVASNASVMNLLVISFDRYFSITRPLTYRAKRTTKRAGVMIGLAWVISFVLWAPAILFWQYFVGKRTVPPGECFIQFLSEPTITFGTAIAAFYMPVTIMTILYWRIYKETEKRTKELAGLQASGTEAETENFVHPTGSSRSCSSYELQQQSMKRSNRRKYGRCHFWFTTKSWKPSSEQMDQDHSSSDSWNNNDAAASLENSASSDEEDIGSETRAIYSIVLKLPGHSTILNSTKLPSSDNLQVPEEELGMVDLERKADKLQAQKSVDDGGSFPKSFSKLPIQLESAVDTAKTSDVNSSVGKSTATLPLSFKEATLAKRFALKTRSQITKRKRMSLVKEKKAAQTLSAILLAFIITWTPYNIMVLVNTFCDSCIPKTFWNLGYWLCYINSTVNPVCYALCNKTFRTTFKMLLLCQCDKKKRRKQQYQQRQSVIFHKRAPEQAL

CCCC(=O)N[C@H]1CC2(CCN(CCC(C)C)CC2)c2ccccc21 [compound 227]
M1 Activity (M1 muscarinic receptor): + (activity was measured to be greater than 5.0 μM)
Emax (M1 muscarinic receptor): < 25%
M2 Activity (M2 muscarinic receptor): + (activity was measured to be greater than 5.0 μM)
Emax (M2 muscarinic receptor): < 25%
M3 Activity (M3 muscarinic receptor): + (activity was measured to be greater than 5.0 μM)
Emax (M3 muscarinic receptor): < 25%
M4 Activity (M4 muscarinic receptor): + (activity was measured to be greater than 5.0 μM)
Emax (M4 muscarinic receptor): < 25%

CC(=O)N[C@H]1CC2(CCN(CC(N)=O)CC2)c2ccccc21 [compound 229]
M1 Activity (M1 muscarinic receptor): + (activity was measured to be greater than 5.0 μM)
Emax (M1 muscarinic receptor): < 25%
M2 Activity (M2 muscarinic receptor): + (activity was measured to be greater than 5.0 μM)
Emax (M2 muscarinic receptor): < 25%
M3 Activity (M3 muscarinic receptor): + (activity was measured to be greater than 5.0 μM)
Emax (M3 muscarinic receptor): < 25%
M4 Activity (M4 muscarinic receptor): + (activity was measured to be greater than 5.0 μM)
Emax (M4 muscarinic receptor): < 25%

CCC(=O)N[C@H]1CC2(CCN(CCC(C)(C)C)CC2)c2ccccc21 [compound 230]
Emax (M1 muscarinic receptor): 25 to 100%
Emax (M2 muscarinic receptor): < 25%
Emax (M3 muscarinic receptor): < 25%
Emax (M4 muscarinic receptor): 25 to 100%

CCC(=O)N[C@H]1CC2(CCN(CCC(C)C)CC2)c2ccccc21 [compound 231]
M1 Activity (M1 muscarinic receptor): + (activity was measured to be greater than 5.0 μM)
Emax (M1 muscarinic receptor): < 25%
M2 Activity (M2 muscarinic receptor): + (activity was measured to be greater than 5.0 μM)
Emax (M2 muscarinic receptor): < 25%
M3 Activity (M3 muscarinic receptor): + (activity was measured to be greater than 5.0 μM)
Emax (M3 muscarinic receptor): < 25%
M4 Activity (M4 muscarinic receptor): +++ (activity was measured to be less than 2.0 μM)
Emax (M4 muscarinic receptor): < 25%

CN1CCC2(CCCc3ccccc32)CC1 [compound 232]
M1 Activity (M1 muscarinic receptor): + (activity was measured to be greater than 5.0 μM)
Emax (M1 muscarinic receptor): < 25%
M2 Activity (M2 muscarinic receptor): + (activity was measured to be greater than 5.0 μM)
Emax (M2 muscarinic receptor): < 25%
M3 Activity (M3 muscarinic receptor): + (activity was measured to be greater than 5.0 μM)
Emax (M3 muscarinic receptor): < 25%
M4 Activity (M4 muscarinic receptor): + (activity was measured to be greater than 5.0 μM)
Emax (M4 muscarinic receptor): < 25%

COC(=O)CN1CCC2(CC1)C[C@H](NC(C)=O)c1ccccc12 [compound 233]
M1 Activity (M1 muscarinic receptor): + (activity was measured to be greater than 5.0 μM)
Emax (M1 muscarinic receptor): 25 to 100%
M2 Activity (M2 muscarinic receptor): + (activity was measured to be greater than 5.0 μM)
Emax (M2 muscarinic receptor): < 25%
M3 Activity (M3 muscarinic receptor): + (activity was measured to be greater than 5.0 μM)
Emax (M3 muscarinic receptor): < 25%
M4 Activity (M4 muscarinic receptor): + (activity was measured to be greater than 5.0 μM)
Emax (M4 muscarinic receptor): < 25%

CCOc1ccc(CN2CCC3(CC[C@H](NC(C)=O)c4ccccc43)CC2)cc1 [compound 234]
M1 Activity (M1 muscarinic receptor): ++ (activity was measured to be from 2.0 μM to 5.0 μM)
Emax (M1 muscarinic receptor): 25 to 100%
M2 Activity (M2 muscarinic receptor): + (activity was measured to be greater than 5.0 μM)
Emax (M2 muscarinic receptor): < 25%
M3 Activity (M3 muscarinic receptor): + (activity was measured to be greater than 5.0 μM)
Emax (M3 muscarinic receptor): < 25%
M4 Activity (M4 muscarinic receptor): ++ (activity was measured to be from 2.0 μM to 5.0 μM)
Emax (M4 muscarinic receptor): 25 to 100%

CC(=O)N[C@H]1CC2(CCN(CC(=O)NCC(C)C)CC2)c2ccccc21 [compound 235]
M1 Activity (M1 muscarinic receptor): + (activity was measured to be greater than 5.0 μM)
Emax (M1 muscarinic receptor): < 25%
M2 Activity (M2 muscarinic receptor): + (activity was measured to be greater than 5.0 μM)
Emax (M2 muscarinic receptor): < 25%
M3 Activity (M3 muscarinic receptor): + (activity was measured to be greater than 5.0 μM)
Emax (M3 muscarinic receptor): < 25%
M4 Activity (M4 muscarinic receptor): + (activity was measured to be greater than 5.0 μM)
Emax (M4 muscarinic receptor): < 25%

CC(=O)N[C@H]1CC2(CCN(C(C)CC(C)C)CC2)c2ccccc21 (stereo partly shown) [compound 236]
M1 Activity (M1 muscarinic receptor): + (activity was measured to be greater than 5.0 μM)
Emax (M1 muscarinic receptor): < 25%
M2 Activity (M2 muscarinic receptor): + (activity was measured to be greater than 5.0 μM)
Emax (M2 muscarinic receptor): < 25%
M3 Activity (M3 muscarinic receptor): + (activity was measured to be greater than 5.0 μM)
Emax (M3 muscarinic receptor): < 25%
M4 Activity (M4 muscarinic receptor): + (activity was measured to be greater than 5.0 μM)
Emax (M4 muscarinic receptor): < 25%

COC(=O)CCCN1CCC2(CC1)C[C@H](NC(C)=O)c1ccccc12 [compound 237]
M1 Activity (M1 muscarinic receptor): + (activity was measured to be greater than 5.0 μM)
Emax (M1 muscarinic receptor): 25 to 100%
M2 Activity (M2 muscarinic receptor): + (activity was measured to be greater than 5.0 μM)
Emax (M2 muscarinic receptor): < 25%
M3 Activity (M3 muscarinic receptor): + (activity was measured to be greater than 5.0 μM)
Emax (M3 muscarinic receptor): < 25%
M4 Activity (M4 muscarinic receptor): + (activity was measured to be greater than 5.0 μM)
Emax (M4 muscarinic receptor): 25 to 100%

C/C=C(\C)CN1CCC2(CC1)C[C@H](NC(C)=O)c1ccccc12 [compound 238]
M1 Activity (M1 muscarinic receptor): + (activity was measured to be greater than 5.0 μM)
Emax (M1 muscarinic receptor): < 25%
M2 Activity (M2 muscarinic receptor): + (activity was measured to be greater than 5.0 μM)
Emax (M2 muscarinic receptor): < 25%
M3 Activity (M3 muscarinic receptor): + (activity was measured to be greater than 5.0 μM)
Emax (M3 muscarinic receptor): < 25%
M4 Activity (M4 muscarinic receptor): + (activity was measured to be greater than 5.0 μM)
Emax (M4 muscarinic receptor): < 25%

COc1cc2c(cc1OC)C1(CCN(C(=O)OC(C)(C)C)CC1)CC2=O [compound 239]
M1 Activity (M1 muscarinic receptor): + (activity was measured to be greater than 5.0 μM)
Emax (M1 muscarinic receptor): < 25%
M2 Activity (M2 muscarinic receptor): + (activity was measured to be greater than 5.0 μM)
Emax (M2 muscarinic receptor): < 25%
M3 Activity (M3 muscarinic receptor): + (activity was measured to be greater than 5.0 μM)
Emax (M3 muscarinic receptor): < 25%
M4 Activity (M4 muscarinic receptor): + (activity was measured to be greater than 5.0 μM)
Emax (M4 muscarinic receptor): < 25%

CCNC(=O)CN1CCC2(CC1)C[C@H](NC(C)=O)c1ccccc12 [compound 241]
M1 Activity (M1 muscarinic receptor): + (activity was measured to be greater than 5.0 μM)
Emax (M1 muscarinic receptor): < 25%
M2 Activity (M2 muscarinic receptor): + (activity was measured to be greater than 5.0 μM)
Emax (M2 muscarinic receptor): < 25%
M3 Activity (M3 muscarinic receptor): + (activity was measured to be greater than 5.0 μM)
Emax (M3 muscarinic receptor): < 25%
M4 Activity (M4 muscarinic receptor): + (activity was measured to be greater than 5.0 μM)
Emax (M4 muscarinic receptor): < 25%

C=CCCCN1CCC2(CC1)C[C@H](NC(C)=O)c1ccccc12 [compound 242]
M1 Activity (M1 muscarinic receptor): + (activity was measured to be greater than 5.0 μM)
Emax (M1 muscarinic receptor): 25 to 100%
M2 Activity (M2 muscarinic receptor): + (activity was measured to be greater than 5.0 μM)
Emax (M2 muscarinic receptor): < 25%
M3 Activity (M3 muscarinic receptor): + (activity was measured to be greater than 5.0 μM)
Emax (M3 muscarinic receptor): < 25%
M4 Activity (M4 muscarinic receptor): ++ (activity was measured to be from 2.0 μM to 5.0 μM)
Emax (M4 muscarinic receptor): 25 to 100%

CC(=O)N[C@H]1CC2(CCN(CC(C)(C)C)CC2)c2ccccc21 [compound 243]
M1 Activity (M1 muscarinic receptor): + (activity was measured to be greater than 5.0 μM)
Emax (M1 muscarinic receptor): 25 to 100%
M2 Activity (M2 muscarinic receptor): + (activity was measured to be greater than 5.0 μM)
Emax (M2 muscarinic receptor): 25 to 100%
M3 Activity (M3 muscarinic receptor): + (activity was measured to be greater than 5.0 μM)
Emax (M3 muscarinic receptor): < 25%
M4 Activity (M4 muscarinic receptor): +++ (activity was measured to be less than 2.0 μM)
Emax (M4 muscarinic receptor): 25 to 100%

CC(=O)N[C@H]1CC2(CCN(CCC(C)(C)C)CC2)c2ccccc21 [compound 244]
M1 Activity (M1 muscarinic receptor): +++ (activity was measured to be less than 2.0 μM)
Emax (M1 muscarinic receptor): 25 to 100%
M2 Activity (M2 muscarinic receptor): + (activity was measured to be greater than 5.0 μM)
Emax (M2 muscarinic receptor): < 25%
M3 Activity (M3 muscarinic receptor): + (activity was measured to be greater than 5.0 μM)
Emax (M3 muscarinic receptor): < 25%
M4 Activity (M4 muscarinic receptor): +++ (activity was measured to be less than 2.0 μM)
Emax (M4 muscarinic receptor): 25 to 100%
